# Data: ChEMBL document CHEMBL1201862, “PubChem BioAssay data set” (2004)
# Counter-ions that a name gives are not always drawn. Calls of active or inactive are those of the source.
# Experiments:
# [1] = target: T1, Apoptotic protease-activating factor 1 (Homo sapiens, UniProt O14727); assay: activation of Apaf-1 mediated apoptosis – fluorescent, uHTS hits, dose response (AID 588554); assay type: functional
# T1 sequence (O14727 whole entry): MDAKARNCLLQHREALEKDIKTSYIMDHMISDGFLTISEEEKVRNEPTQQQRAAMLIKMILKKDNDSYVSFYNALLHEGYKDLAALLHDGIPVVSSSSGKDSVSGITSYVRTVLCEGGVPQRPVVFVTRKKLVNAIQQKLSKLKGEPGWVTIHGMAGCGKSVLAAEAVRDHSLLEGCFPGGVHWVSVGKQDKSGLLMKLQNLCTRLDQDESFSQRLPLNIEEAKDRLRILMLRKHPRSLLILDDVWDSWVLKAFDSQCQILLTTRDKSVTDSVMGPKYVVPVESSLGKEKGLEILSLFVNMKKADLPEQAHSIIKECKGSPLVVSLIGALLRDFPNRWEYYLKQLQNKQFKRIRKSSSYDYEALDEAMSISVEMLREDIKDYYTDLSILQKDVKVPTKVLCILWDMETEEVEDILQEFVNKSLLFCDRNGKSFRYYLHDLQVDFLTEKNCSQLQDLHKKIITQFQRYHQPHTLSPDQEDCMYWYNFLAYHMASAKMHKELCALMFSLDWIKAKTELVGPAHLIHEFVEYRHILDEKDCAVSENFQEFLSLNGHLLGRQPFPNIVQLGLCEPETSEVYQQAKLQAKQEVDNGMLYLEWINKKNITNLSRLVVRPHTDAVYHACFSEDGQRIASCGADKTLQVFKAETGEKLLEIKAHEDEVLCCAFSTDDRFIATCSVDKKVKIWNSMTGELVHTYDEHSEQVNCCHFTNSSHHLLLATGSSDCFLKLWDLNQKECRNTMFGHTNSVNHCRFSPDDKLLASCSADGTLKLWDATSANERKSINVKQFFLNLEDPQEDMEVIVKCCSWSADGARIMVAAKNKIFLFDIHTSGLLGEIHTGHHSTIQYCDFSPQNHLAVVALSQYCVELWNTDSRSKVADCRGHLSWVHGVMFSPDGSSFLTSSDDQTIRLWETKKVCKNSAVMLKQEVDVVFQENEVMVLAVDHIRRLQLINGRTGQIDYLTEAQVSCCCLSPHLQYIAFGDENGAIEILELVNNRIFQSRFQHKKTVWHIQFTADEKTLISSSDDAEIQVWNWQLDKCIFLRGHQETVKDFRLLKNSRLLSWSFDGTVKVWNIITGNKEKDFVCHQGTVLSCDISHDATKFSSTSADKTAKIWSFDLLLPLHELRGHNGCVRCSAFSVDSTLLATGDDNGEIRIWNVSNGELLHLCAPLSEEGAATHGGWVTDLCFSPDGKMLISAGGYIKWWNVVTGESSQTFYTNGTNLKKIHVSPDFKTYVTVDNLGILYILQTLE
# [2] = target: T2, Beta-adrenergic receptor kinase 1 (Homo sapiens, UniProt P25098); assay: aptamer displacement from bead-bound GRK2 – biochemical, cherry pick 1, bead flow cytometry, dose response (AID 504500)
# Protein S100-A4 = Protein S100-A4 (Homo sapiens, UniProt P26447); assay: human S100A4 peptide interaction inhibition curves – biochemical, fluorescence polarization, cherry-picked hits, dose response (AID 687001); assay type: functional
# Caspase-6 = target: T3, Caspase-6 (Homo sapiens, UniProt P55212); assay: inhibition of CASP6 peptide cleavage – biochemical, VEID-R110 fluorescence, cherry-pick, dose response (AID 720632)
# T3 sequence (P55212 whole entry): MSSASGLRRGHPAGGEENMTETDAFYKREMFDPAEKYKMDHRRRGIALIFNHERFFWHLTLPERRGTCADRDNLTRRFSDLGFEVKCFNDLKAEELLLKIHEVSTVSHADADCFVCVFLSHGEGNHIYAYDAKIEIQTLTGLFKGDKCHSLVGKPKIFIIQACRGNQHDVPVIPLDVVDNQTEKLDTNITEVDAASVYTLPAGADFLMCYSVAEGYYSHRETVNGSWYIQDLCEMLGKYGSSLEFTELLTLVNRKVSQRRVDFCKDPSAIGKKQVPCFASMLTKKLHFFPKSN
# [3] = target: T4, Carboxy-terminal domain RNA polymerase II polypeptide A small phosphatase 1 (Homo sapiens, UniProt Q9GZU7); assay: CTDSP1 inhibitors, concentration-response, biochemical, absorbance readout, ultra-high-throughput screen actives (AID 540297); assay type: functional
# T4 sequence (Q9GZU7 whole entry): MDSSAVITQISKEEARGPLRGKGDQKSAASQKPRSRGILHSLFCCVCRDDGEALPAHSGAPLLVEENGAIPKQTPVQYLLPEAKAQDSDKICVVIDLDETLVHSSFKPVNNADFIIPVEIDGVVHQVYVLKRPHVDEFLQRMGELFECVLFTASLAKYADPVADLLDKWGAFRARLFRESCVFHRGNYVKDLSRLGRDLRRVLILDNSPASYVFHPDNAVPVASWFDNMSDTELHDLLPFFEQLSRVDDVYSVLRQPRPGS
# Caspase-7 = Caspase-7 (Homo sapiens, UniProt P55210); assay: caspase-7 enzyme inhibition, selectivity check – biochemical, DEVD-R110 fluorescence, cherry-pick, selectivity assay for caspase-6 inhibitor project, dose response (AID 743295); assay type: functional
# [4] = target: T2, Beta-adrenergic receptor kinase 1; assay: blockers of aptamer binding to GRK2 – biochemical, flow cytometry beads, FAM-aptamer, powder set 1, dose response (AID 588720)
# [5] = target: Photoreceptor-specific nuclear receptor (Homo sapiens, UniProt Q9Y5X4); assay: ligands suppressing NR2E3 nuclear receptor activity – biochemical, TR-FRET, dose response (AID 463256); assay type: functional
# [6] = target: T5, Endoribonuclease toxin MazF (Escherichia coli K-12, UniProt P0AE70); assay: substrate-only fluorescence increase artefacts – biochemical, single-stranded RNase substrate, counter-screen for MazEF activator project, dose response (AID 588502); assay type: functional
# [7] = target: Peroxisome proliferator-activated receptor gamma/Nuclear receptor corepressor 2 (Homo sapiens, UniProt P37231+Q9Y618); assay: Counterscreen for NR2E3 inverse agonists: TR-FRET-based biochemical high throughput dose response assay to identify inverse agonists of the interaction between peroxisome proliferator-activated receptor gamma (PPARg) and nuclear receptor co-repressor 2 (NCOR2).; assay type: functional
# [8] = target: T5, Endoribonuclease toxin MazF; assay: activation of MazEF endoribonuclease cleavage – biochemical, fluorescence, single-stranded RNA substrate, uHTS hits, dose response (AID 588481); assay type: functional
# [9] = loss of viability in HepG2 cells – cell-based, CellTiter-Glo, cherry-picked, cytotoxicity control for Shn3 inhibitor project, dose response (AID 624134); assay type: functional
# [10] = Lymphoblastoid Cells (LCL) Cytotoxicity Secondary Assay Measured in Cell-Based System Using Plate Reader - 2122-03_Inhibitor_Dose_CherryPick_Activity_Set2. [Related pubchem assays (depositor defined):AID504586]
# [11] = non-specific 3'UTR reporter inhibition in Clone20-Shn3RL – cell-based, Renilla luciferase, cherry-picked, counter-screen for Shn3 inhibitor project, dose response (AID 624133); assay type: functional
# HEK293 = assay: EBV LMP1 TES2 canonical NF-kB signalling blockers – cell-based, HEK293, luciferase, cherry-pick, dose response (AID 588343); assay type: functional; details: Homo sapiens
# [12] = reduction of Shn3 3'UTR-driven luciferase in osteoblasts – cell-based, Clone20 osteoblasts, firefly luciferase, cherry-picked, dose response (AID 624132); assay type: functional;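 further: firefly luciferase luminescence from reporter carrying the Shn3 3'UTR in osteoblasts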
# [13] = general cell-killing toxicity readout – plate reader, dry powder samples, cytotoxicity control for PAX8 inhibitor project, dose response (AID 743021); assay type: functional, cell-based
# [14] = Luminescence Cell-Based Dose Response HTS to Identify Inhibitors of 5'UTR Stem-Loop Driven Prion Protein mRNA Translation in H4 Neuroglioblastoma Cells. [Related pubchem assays: 1827 (Project Summary), 1813 (Primary HTS)]; assay type: functional
# Paired box protein Pax-8 = Paired box protein Pax-8 (Homo sapiens, UniProt Q06710); assay: PAX8 transcriptional activity inhibition in RMG-I – RMG-I cells, luciferase, cherry-pick, dose response (AID 687027); assay type: functional, cell-based;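 further: luciferase reporter driven by Pax8 target thyroperoxidase promoter measured by SteadyGlo luminescence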
# [15] = DRD fibroblast viability loss – cell-based, non-viral oncogenic, luminescence, dose response (AID 1934); assay type: functional; details: Homo sapiens
# [16] = target: C-C chemokine receptor type 6 (Homo sapiens, UniProt P51684); assay: antagonism of CCR6 beta-arrestin recruitment – cell-based, luminescent beta-arrestin readout, dose response (AID 504728); assay type: functional
# Bcl-2-related protein A1 = target: T6, Bcl-2-related protein A1 (Mus musculus, UniProt Q07440); assay type: functional;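 further: confirmatory dose–response counterscreen on Bfl-1, used to check hits from a UBC13 polyubiquitin inhibitor campaign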
# T6 sequence (Q07440 whole entry): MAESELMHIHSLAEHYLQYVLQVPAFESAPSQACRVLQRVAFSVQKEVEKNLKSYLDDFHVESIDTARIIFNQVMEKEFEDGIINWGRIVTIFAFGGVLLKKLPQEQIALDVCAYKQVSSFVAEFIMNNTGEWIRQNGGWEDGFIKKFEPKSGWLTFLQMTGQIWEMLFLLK
# [17] = target: T7, Ubiquitin-conjugating enzyme E2 N (Homo sapiens, UniProt P61088); assay type: functional
# T7 sequence (P61088 whole entry): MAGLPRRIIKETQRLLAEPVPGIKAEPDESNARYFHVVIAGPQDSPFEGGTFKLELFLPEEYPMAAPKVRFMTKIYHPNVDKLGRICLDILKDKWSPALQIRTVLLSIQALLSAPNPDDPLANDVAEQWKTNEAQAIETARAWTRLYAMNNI
# BJ [18] = assay: cells; assay type: functional, cell-based; details: Homo sapiens
# [19] = luciferase reporter signal suppression in cells – H4 neuroglioma cells, luminescence, dose response (AID 1990); assay type: functional, cell-based
# [20] = alpha-synuclein stem-loop luciferase translation blockers – H4 neuroglioma cells, luminescence, confirmation (AID 1988); assay type: functional, cell-based
# [21] = target: T8, DNA repair protein RAD52 homolog (Homo sapiens, UniProt P43351); assay type: functional, biochemical
# T8 sequence (P43351 whole entry): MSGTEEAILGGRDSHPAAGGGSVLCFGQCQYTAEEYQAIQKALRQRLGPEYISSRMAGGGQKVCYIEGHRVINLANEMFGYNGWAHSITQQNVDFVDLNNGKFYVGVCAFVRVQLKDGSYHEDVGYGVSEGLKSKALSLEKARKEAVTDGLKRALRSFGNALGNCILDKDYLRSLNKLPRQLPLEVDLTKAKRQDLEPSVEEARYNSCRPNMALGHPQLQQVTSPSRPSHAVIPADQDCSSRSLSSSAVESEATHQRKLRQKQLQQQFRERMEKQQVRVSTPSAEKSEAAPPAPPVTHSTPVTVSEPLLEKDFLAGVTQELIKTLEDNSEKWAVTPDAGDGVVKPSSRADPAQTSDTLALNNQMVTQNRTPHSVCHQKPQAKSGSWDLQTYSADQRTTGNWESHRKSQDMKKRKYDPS
# BJ [22] = assay: BJ-TERT-LT-ST fibroblast viability loss – cell-based, RAS-independent, luminescence, dose response (AID 1935); assay type: functional; details: Homo sapiens;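 further: BJ fibroblasts immortalized with TERT plus LT and ST oncogenes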
# BJ [23] = assay: BJ-TERT fibroblast viability loss – cell-based, RAS-independent, luminescence, dose response (AID 1933); assay type: functional; details: Homo sapiens
# [24] = target: T7, Ubiquitin-conjugating enzyme E2 N; assay type: functional; remark: listed apart in the source
# BJ [25] = assay: growth inhibition of engineered Ras-driven BJ cells – cell-based, alamar blue fluorescence, cherrypicked samples, dose response (AID 2631); assay type: functional; details: Homo sapiens;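 further: confirmatory dose-response assay in RAS-dependent BJ fibroblasts engineered with TERT, LT and ST, with cytotoxicity read by fluorescence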
# Beta-galactosidase = Beta-galactosidase (Escherichia coli, UniProt Q8VNN2); assay: detection-enzyme interference by beta-gal modulators – biochemical, E. coli enzyme, set 3, artefact control for CCR6 antagonist project, dose response (AID 504712); assay type: functional
# T2 sequence (P25098 whole entry): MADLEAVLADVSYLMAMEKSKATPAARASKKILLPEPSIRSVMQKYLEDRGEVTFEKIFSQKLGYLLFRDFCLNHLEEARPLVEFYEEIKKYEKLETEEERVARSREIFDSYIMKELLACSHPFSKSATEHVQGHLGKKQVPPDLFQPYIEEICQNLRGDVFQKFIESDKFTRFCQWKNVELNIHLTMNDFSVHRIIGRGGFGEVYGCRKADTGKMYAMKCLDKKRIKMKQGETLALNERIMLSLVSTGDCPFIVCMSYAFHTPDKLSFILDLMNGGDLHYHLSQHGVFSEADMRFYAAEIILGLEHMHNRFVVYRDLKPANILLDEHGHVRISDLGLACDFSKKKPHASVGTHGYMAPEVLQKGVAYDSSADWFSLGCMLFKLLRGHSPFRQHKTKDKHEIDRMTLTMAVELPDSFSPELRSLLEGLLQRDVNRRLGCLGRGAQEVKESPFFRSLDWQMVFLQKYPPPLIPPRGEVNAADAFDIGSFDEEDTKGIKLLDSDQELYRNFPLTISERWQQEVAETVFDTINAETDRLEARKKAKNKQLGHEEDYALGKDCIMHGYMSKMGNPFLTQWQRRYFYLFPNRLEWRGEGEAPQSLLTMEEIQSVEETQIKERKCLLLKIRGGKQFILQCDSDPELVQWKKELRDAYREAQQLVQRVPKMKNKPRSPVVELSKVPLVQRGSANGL
# T5 sequence (P0AE70 whole entry): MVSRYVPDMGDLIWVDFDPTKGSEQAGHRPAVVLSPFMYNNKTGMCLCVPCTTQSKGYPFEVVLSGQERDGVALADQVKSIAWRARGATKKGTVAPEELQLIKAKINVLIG
# Sequence of Protein S100-A4 (P26447 whole entry): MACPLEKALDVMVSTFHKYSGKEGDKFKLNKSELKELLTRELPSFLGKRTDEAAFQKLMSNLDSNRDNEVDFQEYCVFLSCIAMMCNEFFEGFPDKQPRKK
# Sequence of Paired box protein Pax-8 (Q06710 whole entry): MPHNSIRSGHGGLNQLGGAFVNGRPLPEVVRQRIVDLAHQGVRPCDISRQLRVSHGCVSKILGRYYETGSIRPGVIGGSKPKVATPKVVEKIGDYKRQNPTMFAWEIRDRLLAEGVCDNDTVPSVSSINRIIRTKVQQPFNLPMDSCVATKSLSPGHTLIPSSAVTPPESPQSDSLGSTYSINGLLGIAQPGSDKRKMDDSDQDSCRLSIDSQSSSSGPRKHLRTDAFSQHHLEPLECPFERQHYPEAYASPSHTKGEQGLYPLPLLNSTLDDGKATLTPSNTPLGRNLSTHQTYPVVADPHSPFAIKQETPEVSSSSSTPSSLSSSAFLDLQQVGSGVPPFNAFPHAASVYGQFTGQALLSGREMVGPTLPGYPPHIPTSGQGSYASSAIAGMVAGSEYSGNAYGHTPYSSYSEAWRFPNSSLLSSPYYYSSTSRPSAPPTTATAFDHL
# Sequence of Peroxisome proliferator-activated receptor gamma/Nuclear receptor corepressor 2 (P37231 whole entry): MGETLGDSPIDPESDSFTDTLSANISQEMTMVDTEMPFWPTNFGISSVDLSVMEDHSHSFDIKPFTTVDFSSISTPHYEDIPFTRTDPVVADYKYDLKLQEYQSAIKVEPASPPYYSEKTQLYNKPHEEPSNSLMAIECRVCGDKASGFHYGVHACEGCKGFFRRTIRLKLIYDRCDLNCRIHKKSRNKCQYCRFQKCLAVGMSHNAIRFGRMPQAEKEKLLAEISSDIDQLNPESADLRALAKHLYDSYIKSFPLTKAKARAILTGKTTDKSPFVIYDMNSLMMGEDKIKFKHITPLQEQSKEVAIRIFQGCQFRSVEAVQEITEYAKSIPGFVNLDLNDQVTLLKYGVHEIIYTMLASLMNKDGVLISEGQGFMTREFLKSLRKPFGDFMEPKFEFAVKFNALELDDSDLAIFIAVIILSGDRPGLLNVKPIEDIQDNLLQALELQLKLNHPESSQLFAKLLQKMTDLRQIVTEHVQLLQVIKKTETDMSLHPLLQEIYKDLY
# Sequence of Peroxisome proliferator-activated receptor gamma/Nuclear receptor corepressor 2 (Q9Y618 whole entry): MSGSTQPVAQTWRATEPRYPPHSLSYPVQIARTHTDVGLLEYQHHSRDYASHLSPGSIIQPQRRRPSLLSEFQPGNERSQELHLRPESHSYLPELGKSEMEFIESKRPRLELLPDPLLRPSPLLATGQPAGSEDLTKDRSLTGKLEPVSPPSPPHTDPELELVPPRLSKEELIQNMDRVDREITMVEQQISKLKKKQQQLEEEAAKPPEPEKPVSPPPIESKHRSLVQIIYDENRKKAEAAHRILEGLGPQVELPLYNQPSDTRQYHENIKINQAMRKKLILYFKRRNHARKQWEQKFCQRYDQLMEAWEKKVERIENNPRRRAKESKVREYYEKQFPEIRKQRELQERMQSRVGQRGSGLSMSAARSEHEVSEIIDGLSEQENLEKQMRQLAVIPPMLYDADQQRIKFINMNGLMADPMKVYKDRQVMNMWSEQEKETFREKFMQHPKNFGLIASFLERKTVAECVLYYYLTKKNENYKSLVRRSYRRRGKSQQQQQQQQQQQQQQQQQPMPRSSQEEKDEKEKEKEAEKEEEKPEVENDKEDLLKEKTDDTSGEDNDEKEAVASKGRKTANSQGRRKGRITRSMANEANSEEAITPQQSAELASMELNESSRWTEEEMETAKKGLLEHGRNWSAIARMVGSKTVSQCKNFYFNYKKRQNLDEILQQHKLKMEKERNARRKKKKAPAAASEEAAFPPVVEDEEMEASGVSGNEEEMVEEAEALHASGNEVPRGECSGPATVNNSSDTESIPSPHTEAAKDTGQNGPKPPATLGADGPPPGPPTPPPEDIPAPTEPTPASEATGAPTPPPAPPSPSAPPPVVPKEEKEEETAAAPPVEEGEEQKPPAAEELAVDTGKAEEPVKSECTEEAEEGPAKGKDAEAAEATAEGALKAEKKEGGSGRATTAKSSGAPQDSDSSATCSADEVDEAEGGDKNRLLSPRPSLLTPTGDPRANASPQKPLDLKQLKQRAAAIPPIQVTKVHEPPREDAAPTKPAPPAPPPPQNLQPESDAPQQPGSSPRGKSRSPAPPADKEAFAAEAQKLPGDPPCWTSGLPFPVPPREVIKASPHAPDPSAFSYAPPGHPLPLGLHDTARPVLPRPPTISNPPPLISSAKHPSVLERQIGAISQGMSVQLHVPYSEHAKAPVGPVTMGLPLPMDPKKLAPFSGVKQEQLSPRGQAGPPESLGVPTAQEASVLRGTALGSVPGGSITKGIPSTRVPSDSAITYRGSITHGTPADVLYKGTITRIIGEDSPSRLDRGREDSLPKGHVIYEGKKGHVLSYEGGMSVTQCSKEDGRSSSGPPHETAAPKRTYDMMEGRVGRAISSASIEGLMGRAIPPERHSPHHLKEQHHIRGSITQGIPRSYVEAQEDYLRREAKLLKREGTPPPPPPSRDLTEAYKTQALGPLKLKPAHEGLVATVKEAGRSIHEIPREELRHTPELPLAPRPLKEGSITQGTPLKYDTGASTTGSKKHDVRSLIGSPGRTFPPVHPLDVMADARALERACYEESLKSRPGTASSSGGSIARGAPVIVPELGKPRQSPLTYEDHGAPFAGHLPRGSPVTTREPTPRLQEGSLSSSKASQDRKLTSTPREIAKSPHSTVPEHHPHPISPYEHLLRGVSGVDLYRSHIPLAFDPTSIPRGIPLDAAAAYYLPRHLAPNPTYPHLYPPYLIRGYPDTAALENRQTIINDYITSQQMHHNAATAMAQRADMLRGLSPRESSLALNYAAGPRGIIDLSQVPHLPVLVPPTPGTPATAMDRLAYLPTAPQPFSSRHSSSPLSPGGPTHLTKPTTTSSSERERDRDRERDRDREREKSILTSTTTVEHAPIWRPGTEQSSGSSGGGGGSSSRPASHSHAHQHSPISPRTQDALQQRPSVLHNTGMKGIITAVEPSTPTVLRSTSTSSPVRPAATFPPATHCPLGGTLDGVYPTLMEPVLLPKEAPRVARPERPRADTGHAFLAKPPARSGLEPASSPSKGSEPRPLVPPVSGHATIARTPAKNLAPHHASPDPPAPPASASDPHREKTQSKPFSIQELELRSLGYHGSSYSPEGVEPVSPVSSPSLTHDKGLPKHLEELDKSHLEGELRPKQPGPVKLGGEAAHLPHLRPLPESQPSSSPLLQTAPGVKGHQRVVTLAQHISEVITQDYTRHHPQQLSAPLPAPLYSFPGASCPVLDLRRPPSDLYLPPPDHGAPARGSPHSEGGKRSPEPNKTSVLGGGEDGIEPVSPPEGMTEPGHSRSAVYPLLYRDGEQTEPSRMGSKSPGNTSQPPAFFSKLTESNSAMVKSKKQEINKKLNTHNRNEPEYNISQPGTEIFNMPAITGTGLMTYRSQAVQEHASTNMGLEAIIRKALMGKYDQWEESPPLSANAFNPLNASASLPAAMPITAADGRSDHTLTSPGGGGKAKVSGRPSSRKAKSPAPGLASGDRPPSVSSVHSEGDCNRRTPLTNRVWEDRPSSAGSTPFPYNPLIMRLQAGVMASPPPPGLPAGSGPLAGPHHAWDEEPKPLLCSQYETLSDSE
# Sequence of Caspase-7 (P55210 24-198 limits assumed): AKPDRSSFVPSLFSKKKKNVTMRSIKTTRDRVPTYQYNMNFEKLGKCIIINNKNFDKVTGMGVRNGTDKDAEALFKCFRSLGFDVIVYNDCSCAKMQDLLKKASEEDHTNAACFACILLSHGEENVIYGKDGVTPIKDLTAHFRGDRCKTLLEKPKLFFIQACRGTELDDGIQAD
# Sequence of Caspase-7 (P55210 207-303 limits assumed): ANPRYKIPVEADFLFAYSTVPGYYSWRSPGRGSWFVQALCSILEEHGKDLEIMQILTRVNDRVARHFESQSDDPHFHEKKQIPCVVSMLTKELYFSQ
# Sequence of C-C chemokine receptor type 6 (P51684 whole entry): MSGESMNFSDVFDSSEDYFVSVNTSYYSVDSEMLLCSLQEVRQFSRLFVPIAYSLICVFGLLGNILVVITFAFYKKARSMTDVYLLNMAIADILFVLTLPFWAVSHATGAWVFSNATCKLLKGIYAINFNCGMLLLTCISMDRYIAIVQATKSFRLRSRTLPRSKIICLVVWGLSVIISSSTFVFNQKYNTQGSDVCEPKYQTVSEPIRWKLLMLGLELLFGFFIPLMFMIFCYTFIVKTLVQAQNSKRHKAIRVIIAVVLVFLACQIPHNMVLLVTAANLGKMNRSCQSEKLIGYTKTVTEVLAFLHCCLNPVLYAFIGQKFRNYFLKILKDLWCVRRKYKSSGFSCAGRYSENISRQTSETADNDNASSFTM
compound,measurement,setting,value
COc1ccc([N+](=O)[O-])cc1NC(=O)CCS(=O)(=O)c1ccc(Br)cc1,EC50,[1],12.2 µM (active)
same,EC50,[2],15 µM (inactive)
same,AC50,Protein S100-A4,4.1 µM (active)
same,AC50,Caspase-6,3.61 µM (active)
same,IC50,[3],4.79 µM (active)
same,AC50,Caspase-7,> 70 µM (inactive)
same,EC50,[4],1.45 µM (active)
Cn1nc(-c2ccc(C(=O)Nc3cccc(Cl)c3)cc2)c2ccccc2c1=O,IC50,[5],3.95 µM (active)
same,EC50,[6],14.8 µM (active)
same,IC50,[7],1.78 µM (active)
same,EC50,[8],57.9 µM (inactive)
CCc1cc2c(N3CCN(c4ccccc4)CC3)ncnc2s1,AC50,[9],34 µM (active)
same,AC50,[10],26.2 µM (active)
same,AC50,[11],11.3 µM (active)
same,AC50,HEK293,26.7 µM (active)
same,AC50,[12],6.18 µM (active)
CCCCCNC(=N)N/N=C/c1c[nH]c2ccc(OC)cc12 [TEGASEROD MALEATE],AC50,[13],23.2 µM (active)
same,EC50,[14],> 120 µM (not active)
same,AC50,Paired box protein Pax-8,12.4 µM (active)
same,EC50,[15],5.36 µM (inconclusive)
same,IC50,[16],23.4 µM (inactive)
same,IC50,Bcl-2-related protein A1,> 20 µM (inactive)
same,IC50,[17],12.5 µM (active)
same,EC50,BJ [18],7.15 µM (active)
same,EC50,[19],> 60 µM (not active)
same,EC50,[20],7.96 µM (active)
same,AC50,[21],16.7 µM (active)
same,EC50,BJ [22],3.94 µM (active)
same,EC50,BJ [23],5.21 µM (inconclusive)
same,IC50,[24],8.2 µM (active)
same,EC50,BJ [25],3.92 µM (inconclusive)
same,IC50,Beta-galactosidase,> 66.6 µM (inactive)
